Laboratory results from patent US4061862A, “Derivatives of 7-(cyclized)phenylglycyl-3-triazolo-thio methyl cephalosporin” (priority 1976, dated 1977).

Legend:
[1] = Bio-assay (mcg./mg.)
Description: 7-[D-α-amino-α-(p-hydroxyphenyl)acetamido]-3-(1,2,3-triazol-5-ylthiomethyl)-3-cephem-4-carboxylic acid methanol solvate (15 g.) was slurried in 60 ml. of water. The pH was raised to 6.5 by addition of 4N NaOH and the mixture was passed through a 200 mesh screen. The reaction mixture was slurried at room temperature for 2 hours, the pH being maintained at 6.5 during this period. The crystals were removed by filtration, washed with 20 ml. of water and air dried at 37° C. for 24 hours to give 11.5 g. of title crystalline product. Bio assay = 924 mcg./mg. (average % H2 O, K.F. = 5.26).
7-[D-α-amino-α-(p-hydroxyphenyl)acetamido]-3-(1,2,3-triazol-5-ylthiomethyl)-3-cephem-4-carboxylic acid methanol solvate (200 mesh; 10.0 g.) substantially free of propylene glycol is slurried in 30-40 ml. of deionized water at ambient room temperature (20°-25° C.) to give a pH 3-4 aqueous suspension. NaOH (40%) is slowly added with rapid stirring to bring the pH to 6.3-6.7. The mixture is slurried at pH 6.3-6.7 for 2 hours. The crystals are removed by filtration, washed with water and air dried at room temperature for 24 hours to give a 75-80% weight yield of 950-1000 mcg./mg. crystals of 7-[D-α-amino-α-(p-hydroxyphenyl)acetamido]-3-(1,2,3-triazol-5-ylthiomethyl)-3-cephem-4-carboxylic acid dihydrate. […] H2 O, K.F. = 6.56.

[2] = Loss of bioactivity on storage at elevated temperatures; format: physicochemical
Description: h. Loss of bioactivity on storage at elevated temperatures: 100° C., 24 hours = <6%; 48 hours = <12%; 56° C., 1 month = <10%.

| degraded at 720 h ([2]; 56° C., 1 month) | degraded at 24 h ([2]; 100° C., 24 hours) | degraded at 48 h ([2]; 100° C., 48 hours) | Structure (SMILES) | Bio-assay [1] |
| --- | --- | --- | --- | --- |
|  |  |  | N[C@@H](C(=O)NC1C(=O)N2C(C(=O)O)=C(CSc3cnn[nH]3)CS[C@H]12)c1ccc(O)cc1.O.O (stereo partly drawn) [7-[D-α-amino-α-(p-hydroxyphenyl)acetamido]-3-(1,2,3-triazol-5-ylthiomethyl)-3-cephem-4-carboxylic acid dihydrate] | 950 to 1000 µg/mg |
|  |  |  | NC(C(=O)NC1C(=O)N2C(C(=O)O)=C(CSc3c[nH]nn3)CSC12)c1ccc(O)cc1 [7-[D-α-amino-α-(p-hydroxyphenyl)acetamido]-3-(1,2,3-triazol-5-ylthiomethyl)-3-cephem-4-carboxylic acid methanol solvate] | 850 to 900 µg/mg |
| < 10% | < 6% | < 12% | NC(C(=O)NC1C(=O)N2C(C(=O)O)=C(CSc3c[nH]nn3)CSC12)c1ccc(O)cc1 [7-[D-α-amino-α-(p-hydroxyphenyl)acetamido]-3-(1,2,3-triazol-5-ylthiomethyl)-3-cephem-4-carboxylic acid propylene glycol solvate] |  |
